The compounds below were run against T1, human Cereblon WT GST-tagged protein (Homo sapiens, UniProt Q96SW2) (assay: CRBN binding, HTRF CEREBLON BINDING kit). Details: CRBN binding, HTRF CEREBLON BINDING kit.
T1 construct: purchased CISBIO 64BDCRBNPEH
Summary of the method: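 Binding inhibition was calculated from the 665/620 nm emission ratios, with blank wells and solvent wells as references. Test compounds competed for GST-tagged human Cereblon WT against a Thalidomide-Re reagent paired with GST Eu antibody. Plates were sealed and held at room temperature for 3 hours before the HTRF read.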

T1 sequence (Q96SW2 whole entry): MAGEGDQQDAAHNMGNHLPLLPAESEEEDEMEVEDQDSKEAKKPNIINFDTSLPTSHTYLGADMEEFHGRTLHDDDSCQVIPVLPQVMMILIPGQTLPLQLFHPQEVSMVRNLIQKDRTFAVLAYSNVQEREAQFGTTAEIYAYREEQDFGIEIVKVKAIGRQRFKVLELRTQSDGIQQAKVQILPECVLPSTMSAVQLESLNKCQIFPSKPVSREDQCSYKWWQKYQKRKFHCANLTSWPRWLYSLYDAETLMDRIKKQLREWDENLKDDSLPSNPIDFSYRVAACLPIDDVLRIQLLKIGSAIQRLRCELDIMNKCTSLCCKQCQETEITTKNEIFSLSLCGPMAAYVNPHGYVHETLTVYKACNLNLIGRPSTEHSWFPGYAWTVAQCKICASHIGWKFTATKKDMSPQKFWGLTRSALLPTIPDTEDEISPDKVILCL

IC50 [nM] | Compound
1000 to 1900 | COc1cc(N2CCC(N3CCN(Cc4ccc(N5CCC(=O)NC5=O)cn4)CC3)CC2)c(C)cc1Nc1ncc(Br)c(Nc2ccc3nccnc3c2P(C)(C)=O)n1 [GT-06003, 1-(6-((4-(1-(4-((5-bromo-4-((5-(dimethylphosphoryl)quinoxalin-6-yl)amino)pyrimidin-2-yl)amino)-5-methoxy-2-methylphenyl)piperidin-4-yl)piperazin-1-yl)methyl)pyridin-3-yl)dihydropyrimidine-2,4(1H,3H)-dione]
< 500 | COc1cc(N2CCN(Cc3cncc(C4CCC(=O)NC4=O)c3)CC2)ccc1Nc1ncc(Cl)c(Nc2ccccc2P(C)(C)=O)n1 (stereo not drawn) [GT-07714, 3-(5-((4-(4-((5-chloro-4-((2-(dimethylphosphoryl)phenyl)amino)pyrimidin-2-yl)amino)-3-methoxyphenyl)piperazin-1-yl)methyl)pyridin-3-yl)piperidine-2,6-dione]
500 to 1000 | COC1CCN(c2nccc(Nc3cc4c(cn3)c(N3CCC(N(C)Cc5cccc(NC6CCC(=O)NC6=O)c5)CC3)nn4C(C)C)n2)CC1 (stereo not drawn) [GT-06123, 3-((3-(((1-(1-isopropyl-6-((2-(4-methoxypiperidin-1-yl)pyrimidin-4-yl)amino)-1H-pyrazolo[4,3-c]pyridin-3-yl)piperidin-4-yl)(methyl)amino)methyl)phenyl)amino)piperidine-2,6-dione]
500 to 1000 | O=C1CCC(c2cc(CN3C[C@H]4C[C@@H]3CN4c3ccc(-c4cc(F)c5c(c4)C(=O)N(C(C(=O)Nc4nccs4)c4ncn6c4CCC6)C5)cc3)ccn2)C(=O)N1 (stereo partly drawn) [GT-07390, 2-(6,7-dihydro-5H-pyrrolo[1,2-c]imidazol-1-yl)-2-(6-(4-((1R,4R)-5-((2-(2,6-dioxopiperidin-3-yl)pyridin-4-yl)methyl)-2,5-diazabicyclo[2.2.1]heptan-2-yl)phenyl)-4-fluoro-1-oxoisoindolin-2-yl)-N-(thiazol-2-yl)acetamide]
500 to 1000 | O=C1CCN(c2ccc(CN3CCN(C4CCN(c5ccc(-c6cc(F)c7c(c6)C(=O)N(C(C(=O)Nc6nccs6)c6ncn8c6CCC8)C7)cc5)CC4)CC3)cc2)C(=O)N1 (stereo not drawn) [GT-06244, 2-(6,7-dihydro-5H-pyrrolo[1,2-c]imidazol-1-yl)-2-(6-(4-(4-(4-(4-(2,4-dioxotetrahydropyrimidin-1(2H)-yl)benzyl)piperazin-1-yl)piperidin-1-yl)phenyl)-4-fluoro-1-oxoisoindolin-2-yl)-N-(thiazol-2-yl)acetamide]
1000 to 1900 | CCc1cc2c(cc1N1CCC(N3CCN(Cc4cccc(NC5CCC(=O)NC5=O)c4)CC3)CC1)C(C)(C)c1[nH]c3cc(C#N)ccc3c1C2=O (stereo not drawn) [GT-07313, 8-(4-(4-(3-((2,6-dioxopiperidin-3-yl)amino)benzyl)piperazin-1-yl)piperidin-1-yl)-9-ethyl-6,6-dimethyl-11-oxo-6,11-dihydro-5H-benzo[b]carbazole-3-carbonitrile]
500 to 1000 | CN(Cc1cc(N2CCC(=O)NC2=O)ncc1F)C1CCN(c2ccc(-c3cc(F)c4c(c3)C(=O)N(C(C(=O)Nc3nccs3)c3ncn5c3CCC5)C4)cc2)CC1 (stereo not drawn) [GT-07382, 2-(6,7-dihydro-5H-pyrrolo[1,2-c]imidazol-1-yl)-2-(6-(4-(4-(((2-(2,4-dioxotetrahydropyrimidin-1(2H)-yl)-5-fluoropyridin-4-yl)methyl)(methyl)amino)piperidin-1-yl)phenyl)-4-fluoro-1-oxoisoindolin-2-yl)-N-(thiazol-2-yl)acetamide]
1000 to 1900 | CN(C)C(=O)c1cc2cnc(Nc3ccc(N4CCC(N(C)Cc5cccc(N6CCC(=O)NC6=O)c5)CC4)cn3)nc2n1C1CCCC1 [GT-06492, 7-cyclopentyl-2-((5-(4-((3-(2,4-dioxotetrahydropyrimidin-1(2H)-yl)benzyl)(methyl)amino)piperidin-1-yl)pyridin-2-yl)amino)-N,N-dimethyl-7H-pyrrolo[2,3-d]pyrimidine-6-carboxamide]
1000 to 1900 | COc1cc(N2CCC(N(C)Cc3ccc(C4CCC(=O)NC4=O)cn3)CC2)ccc1Nc1ncc(Cl)c(Nc2ccccc2P(C)(C)=O)n1 (stereo not drawn) [GT-07698, 3-(6-(((1-(4-((5-chloro-4-((2-(dimethylphosphoryl)phenyl)amino)pyrimidin-2-yl)amino)-3-methoxyphenyl)piperidin-4-yl)(methyl)amino)methyl)pyridin-3-yl)piperidine-2,6-dione]
1000 to 1900 | O=C1CCN(c2cc(CN3C[C@H]4C[C@@H]3CN4c3ccc(-c4cc(F)c5c(c4)C(=O)N(C(C(=O)Nc4nccs4)c4ncn6c4CCC6)C5)cc3)ccn2)C(=O)N1 (stereo partly drawn) [GT-07387, 2-(6,7-dihydro-5H-pyrrolo[1,2-c]imidazol-1-yl)-2-(6-(4-((1R,4R)-5-((2-(2,4-dioxotetrahydropyrimidin-1(2H)-yl)pyridin-4-yl)methyl)-2,5-diazabicyclo[2.2.1]heptan-2-yl)phenyl)-4-fluoro-1-oxoisoindolin-2-yl)-N-(thiazol-2-yl)acetamide]
500 to 1000 | CC(C)(O)c1cc2nn(C3CCN(Cc4cccc(N5CCC(=O)NC5=O)c4)CC3)cc2cc1NC(=O)c1cccc(C(F)(F)F)n1 [GT-05755, N-(2-(1-(3-(2,4-dioxotetrahydropyrimidin-1(2H)-yl)benzyl)piperidin-4-yl)-6-(2-hydroxypropan-2-yl)-2H-indazol-5-yl)-6-(trifluoromethyl)picolinamide]
500 to 1000 | CN(Cc1ccc(N2CCC(=O)NC2=O)cn1)C1CCN(c2ccc(Nc3ncc4nc(Nc5ccccc5)n(C5CCCC5)c4n3)cc2)CC1 [GT-07093, 1-(6-(((1-(4-((9-cyclopentyl-8-(phenylamino)-9H-purin-2-yl)amino)phenyl)piperidin-4-yl)(methyl)amino)methyl)pyridin-3-yl)dihydropyrimidine-2,4(1H,3H)-dione]
500 to 1000 | Cc1cc(-c2nc(C(=O)Nc3cc4oc(N5CCN(Cc6ccc(N7CCC(=O)NC7=O)cc6)CC5)nc4nc3N3CC[C@@H](O)C3)co2)ccn1 [GT-05807, (R)—N-(2-(4-(4-(2,4-dioxotetrahydropyrimidin-1(2H)-yl)benzyl)piperazin-1-yl)-5-(3-hydroxypyrrolidin-1-yl)oxazolo[4,5-b]pyridin-6-yl)-2-(2-methylpyridin-4-yl)oxazole-4-carboxamide]
500 to 1000 | O=C1CCN(c2cccc(CN3CCN(Cc4ccc5c(c4)nc(NC(=O)c4cccc(C(F)(F)F)c4)n5[C@H]4CC[C@@H](CO)CC4)CC3)c2)C(=O)N1 [GT-04977, N-(5-((4-(3-(2,4-dioxotetrahydropyrimidin-1(2H)-yl)benzyl)piperazin-1-yl)methyl)-1-((1s,4s)-4-(hydroxymethyl)cyclohexyl)-1H-benzo[d]imidazol-2-yl)-3-(trifluoromethyl)benzamide]
< 500 | O=C1CCN(c2ccc(CN3CCN(C4CCN(c5ccc(-c6cc(F)c7c(c6)C(=O)N(C(C(=O)Nc6nccs6)c6ncn8c6CCC8)C7)cc5)CC4(F)F)CC3)nc2)C(=O)N1 (stereo not drawn) [GT-06319, 2-(6,7-dihydro-5H-pyrrolo[1,2-c]imidazol-1-yl)-2-(6-(4-(4-(4-((5-(2,4-dioxotetrahydropyrimidin-1(2H)-yl)pyridin-2-yl)methyl)piperazin-1-yl)-3,3-difluoropiperidin-1-yl)phenyl)-4-fluoro-1-oxoisoindolin-2-yl)-N-(thiazol-2-yl)acetamide]
1000 to 1900 | COc1cc2nn(C3CCN(Cc4ccc(N5CCC(=O)NC5=O)cc4F)CC3)cc2cc1NC(=O)c1cccc(C(F)(F)F)n1 [GT-04777, N-(2-(1-(4-(2,4-dioxotetrahydropyrimidin-1(2H)-yl)-2-fluorobenzyl)piperidin-4-yl)-6-methoxy-2H-indazol-5-yl)-6-(trifluoromethyl)picolinamide]
500 to 1000 | CCc1cc2c(cc1N1CCC(N3CCN(Cc4ccc(N5CCC(=O)NC5=O)cc4F)CC3)CC1)C(C)(C)c1[nH]c3cc(C#N)ccc3c1C2=O [GT-07309, 8-(4-(4-(4-(2,4-dioxotetrahydropyrimidin-1(2H)-yl)-2-fluorobenzyl)piperazin-1-yl)piperidin-1-yl)-9-ethyl-6,6-dimethyl-11-oxo-6,11-dihydro-5H-benzo[b]carbazole-3-carbonitrile]
500 to 1000 | CCc1cc2c(cc1N1CCC(N3CCN(Cc4ccc(N5CCC(=O)NC5=O)cn4)CC3)CC1)C(C)(C)c1[nH]c3cc(C#N)ccc3c1C2=O [GT-07311, 8-(4-(4-((5-(2,4-dioxotetrahydropyrimidin-1(2H)-yl)pyridin-2-yl)methyl)piperazin-1-yl)piperidin-1-yl)-9-ethyl-6,6-dimethyl-11-oxo-6,11-dihydro-5H-benzo[b]carbazole-3-carbonitrile]
500 to 1000 | COc1cc(N2CCC(N(C)Cc3ccc(N4CCC(=O)NC4=O)cn3)CC2)c(C)cc1Nc1ncc(Br)c(Nc2ccc3nccnc3c2P(C)(C)=O)n1 [GT-05952, 1-(6-(((1-(4-((5-bromo-4-((5-(dimethylphosphoryl)quinoxalin-6-yl)amino)pyrimidin-2-yl)amino)-5-methoxy-2-methylphenyl)piperidin-4-yl)(methyl)amino)methyl)pyridin-3-yl)dihydropyrimidine-2,4(1H,3H)-dione]
500 to 1000 | CC(C)(O)c1cc2nn(C3CCN(Cc4ccc(N5CCC(=O)NC5=O)cn4)CC3)cc2cc1NC(=O)c1cccc(C(F)(F)F)n1 [GT-05756, N-(2-(1-((5-(2,4-dioxotetrahydropyrimidin-1(2H)-yl)pyridin-2-yl)methyl)piperidin-4-yl)-6-(2-hydroxypropan-2-yl)-2H-indazol-5-yl)-6-(trifluoromethyl)picolinamide]
< 500 | O=C1CCN(c2ccc(CN3CCC(n4cc(NC(=O)c5cnn6ccc(N7CCOCC7)nc56)c(C(F)F)n4)CC3)nc2)C(=O)N1 [GT-05799, N-(3-(difluoromethyl)-1-(1-((5-(2,4-dioxotetrahydropyrimidin-1(2H)-yl)pyridin-2-yl)methyl)piperidin-4-yl)-1H-pyrazol-4-yl)-5-morpholinopyrazolo[1,5-a]pyrimidine-3-carboxamide]

Source: patent US20260274829A1, “NEW E3 UBIQUITIN LIGASE LIGAND, PROTEIN DEGRADATION AGENT AND USE THEREOF” (GLUETACS THERAPEUTICS (SHANGHAI) CO., LTD., priority 2023, published 2026)
